Converted amounts (≈) assume the structure as drawn.
Key:
[1] = Aqueous solubility of the compound at physiological pH; assay type: physicochemical; conditions: buffer
Interstitial collagenase = Interstitial collagenase (Homo sapiens, UniProt P03956); experiment: Inhibition of human interstitial recombinant N-terminal MMP1 expressed in Escherichia coli BL21(DE3) using Mca-Pro-Leu-Gly-Leu-Dpa-Ala-Arg-NH2 as substrate after 20 to 30 mins by spectrofluorimetric analysis
Matrilysin = biological target: T1, Matrilysin (Homo sapiens, UniProt P09237); experiment: Inhibition of MMP7 (unknown origin) expressed in Escherichia coli BL21(DE3) using Mca-Pro-Leu-Gly-Leu-Dpa-Ala-Arg-NH2 as substrate after 20 to 30 mins by spectrofluorimetric analysis
T1 sequence (P09237 whole entry): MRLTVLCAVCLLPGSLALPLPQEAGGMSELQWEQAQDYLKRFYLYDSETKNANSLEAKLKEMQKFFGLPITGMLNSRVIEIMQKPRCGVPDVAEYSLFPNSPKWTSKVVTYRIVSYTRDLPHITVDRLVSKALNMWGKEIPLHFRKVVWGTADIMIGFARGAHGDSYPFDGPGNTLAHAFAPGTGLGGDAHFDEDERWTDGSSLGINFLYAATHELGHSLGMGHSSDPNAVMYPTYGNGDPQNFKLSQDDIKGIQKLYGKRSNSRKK

[2] = biological target: Matrix metalloproteinase-9 (Homo sapiens, UniProt P14780); experiment: Inhibition of MMP9 (unknown origin) expressed in Escherichia coli BL21(DE3) using Mca-Pro-Leu-Gly-Leu-Dpa-Ala-Arg-NH2 as substrate after 20 to 30 mins by spectrofluorimetric analysis
Sequence of Matrix metalloproteinase-9 (P14780 whole entry): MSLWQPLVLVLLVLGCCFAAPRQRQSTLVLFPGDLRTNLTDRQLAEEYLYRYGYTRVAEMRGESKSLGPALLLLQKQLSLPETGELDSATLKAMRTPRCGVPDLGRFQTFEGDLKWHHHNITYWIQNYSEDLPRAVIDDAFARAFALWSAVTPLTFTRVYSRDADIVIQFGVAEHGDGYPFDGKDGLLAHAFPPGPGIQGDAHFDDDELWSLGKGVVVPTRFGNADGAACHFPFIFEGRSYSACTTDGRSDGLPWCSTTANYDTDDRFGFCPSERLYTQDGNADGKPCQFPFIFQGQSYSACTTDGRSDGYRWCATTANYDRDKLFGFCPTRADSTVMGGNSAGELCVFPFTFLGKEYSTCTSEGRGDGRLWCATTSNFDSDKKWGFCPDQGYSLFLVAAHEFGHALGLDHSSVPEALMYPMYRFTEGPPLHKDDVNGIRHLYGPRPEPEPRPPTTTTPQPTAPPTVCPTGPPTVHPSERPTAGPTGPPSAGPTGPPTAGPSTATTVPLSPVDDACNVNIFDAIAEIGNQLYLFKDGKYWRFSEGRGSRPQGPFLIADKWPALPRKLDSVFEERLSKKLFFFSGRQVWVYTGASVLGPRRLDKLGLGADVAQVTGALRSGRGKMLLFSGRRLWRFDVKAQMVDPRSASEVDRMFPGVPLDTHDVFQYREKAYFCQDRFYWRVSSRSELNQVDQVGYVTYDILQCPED

Collagenase 3 = Collagenase 3 (Homo sapiens, UniProt P45452); experiment: Inhibition of MMP13 (unknown origin) expressed in Escherichia coli BL21(DE3) using Mca-Pro-Leu-Gly-Leu-Dpa-Ala-Arg-NH2 as substrate after 20 to 30 mins by spectrofluorimetric analysis
[3] = biological target: 72 kDa type IV collagenase (Homo sapiens, UniProt P08253); experiment: Inhibition of MMP2 (unknown origin) expressed in Escherichia coli BL21(DE3) using Mca-Pro-Leu-Gly-Leu-Dpa-Ala-Arg-NH2 as substrate after 20 to 30 mins by spectrofluorimetric analysis
Sequence of 72 kDa type IV collagenase (P08253 whole entry): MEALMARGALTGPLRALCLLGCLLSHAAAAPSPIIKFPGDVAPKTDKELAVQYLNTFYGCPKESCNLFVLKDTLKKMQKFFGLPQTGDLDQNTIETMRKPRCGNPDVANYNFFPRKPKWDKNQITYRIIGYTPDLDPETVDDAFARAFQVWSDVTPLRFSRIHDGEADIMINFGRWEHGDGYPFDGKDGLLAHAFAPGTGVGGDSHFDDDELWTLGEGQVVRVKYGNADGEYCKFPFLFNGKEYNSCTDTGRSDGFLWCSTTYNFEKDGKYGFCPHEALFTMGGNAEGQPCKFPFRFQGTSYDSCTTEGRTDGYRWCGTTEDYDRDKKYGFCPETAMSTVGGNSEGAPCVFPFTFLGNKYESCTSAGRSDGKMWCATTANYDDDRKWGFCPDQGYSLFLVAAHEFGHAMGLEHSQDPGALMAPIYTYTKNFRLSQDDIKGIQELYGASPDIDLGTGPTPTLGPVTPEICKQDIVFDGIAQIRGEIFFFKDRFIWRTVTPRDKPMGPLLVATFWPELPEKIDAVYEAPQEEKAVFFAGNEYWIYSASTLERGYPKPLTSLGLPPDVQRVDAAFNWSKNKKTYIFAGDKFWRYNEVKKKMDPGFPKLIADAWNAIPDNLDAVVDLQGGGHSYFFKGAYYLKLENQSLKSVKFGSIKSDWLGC

Sequence of Interstitial collagenase (P03956 whole entry): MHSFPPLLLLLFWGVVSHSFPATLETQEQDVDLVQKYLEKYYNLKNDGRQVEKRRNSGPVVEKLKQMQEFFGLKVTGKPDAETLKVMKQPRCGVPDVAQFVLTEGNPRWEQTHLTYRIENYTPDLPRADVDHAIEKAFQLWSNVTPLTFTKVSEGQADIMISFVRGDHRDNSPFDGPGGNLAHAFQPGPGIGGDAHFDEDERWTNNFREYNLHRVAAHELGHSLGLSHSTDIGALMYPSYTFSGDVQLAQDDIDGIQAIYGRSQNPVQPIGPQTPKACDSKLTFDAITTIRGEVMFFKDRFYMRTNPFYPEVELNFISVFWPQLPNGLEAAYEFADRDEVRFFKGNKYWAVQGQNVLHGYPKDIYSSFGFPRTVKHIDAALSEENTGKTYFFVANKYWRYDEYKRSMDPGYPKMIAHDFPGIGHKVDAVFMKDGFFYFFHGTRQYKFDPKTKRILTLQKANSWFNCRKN

Row | solubility [1] [µg/mL] | IC50 (Interstitial collagenase) [nM] | IC50 (Matrilysin) [nM] | IC50 [2] [nM] | IC50 (Collagenase 3) [nM] | IC50 [3] [nM] | Compound
1 | 800 (≈ 2140 µM) |  |  |  |  |  | COc1ccc(S(=O)(=O)N2CCCSC(C)(C)[C@@H]2C(=O)NO)cc1
2 |  | 0.4 | 23 | 0.9 | 1 | 1.4 | COc1ccc(S(=O)(=O)N2CCSC(C)(C)C2C(=O)NO)cc1 (stereo unspecified)

Reference: ChEMBL document CHEMBL4033775, “Natural-Products-Inspired Use of the gem-Dimethyl Group in Medicinal Chemistry” (J Med Chem, 2018)
